Laboratory results published in patent publication US8597666B2, “Compressed solid dosage form manufacturing process well-suited for use with drugs of low aqueous solubility and compressed solid dosage forms made thereby” (Teva Pharmaceutical Industries, Ltd., priority 2004, dated 2013).
Structures can show the parent of a compound that is named as a salt.

Key:
[1] = starch content increased from 5 to 20%; tablets made by double compression; cited from earlier work
[2] = Particle size distribution by laser light scattering (Malvern Mastersizer S); type: physicochemical; conditions: raloxifene hydrochloride used in Formulations 1-4; mean equivalent spherical diameter
Text: All particle sizes herein refer to the mean equivalent spherical diameter measured by laser light scattering techniques. Thus, the notation “d(0.5) greater than about 35 μm” means that 50% of the particles by volume have a mean equivalent spherical diameter of more than about 35 μm, as measured by laser light scattering. The laser light scattering measurement instrument used to measure the particle size distributions in the Examples was a Malvern Mastersizer® S. The dissolution profile was generated by testing in either 900 mL or 2 L of a 0.1% aqueous polysorbate 80 solution, using paddle apparatus (USP Apparatus II) at 50 rpm at 37° C.

SMILES | increase in rate of dissolution of salicylic acid from tablets [1] | particle size d(0.5) [2] [μm] | particle size d(0.9) [2] [μm]
O=C(O)c1ccccc1O [salicylic acid] | three fold | – | –
O=C(c1ccc(OCCN2CCCCC2)cc1)c1c(-c2ccc(O)cc2)sc2cc(O)ccc12 [raloxifene hydrochloride] | – | 38.8 | 90.4
